In PMC13077603, “Fluorine‐18‐Labeled Nucleotide Analogs Targeting Ecto‐5'‐Nucleotidase (CD73) for Positron Emission Tomography Imaging of Solid Tumors” (Angewandte Chemie (International Ed. in English), 2026):
“And” between values parts separate entries of the source, which are not always exact repeats. Equal entries are not always repeated.

Assays:
[1] = Stability in mouse liver microsomes (MLM); format: in vitro ADME; conditions: after 90 min of coincubation, 5 µM compound, 37 °C
Method: An aqueous buffer of 75 mM PBS, 12.5 mM MgCl2, 0.6 mM NADPH, 1 mg/mL mouse liver microsomes and 5 µM of the respective compound was prepared. 200 µL of these samples were incubated for 90 min at 37 °C and […]. Afterward, acetonitrile/methanol (400 µL, 1:1) was added, and the samples were cooled to 0 °C for 10 min. 600 µL buffer was added and the solution was centrifuged for 15 min at 17,880 g. The supernatant was centrifuged again for 15 min at 17,880 g and 4 °C. The obtained solution was diluted with H2O/CH3CN/CH3OH (1:1:1) to a suitable concentration for quantification. Shortly before injection into HPLC, the solution was centrifuged again for 2 min at 17,880 g and 4 °C. The amount of remaining compound in the solution was quantified by ion count in SIM mode via HPLC-MS (CH3CN/water). The injection volume was 50 µL. Every experiment was performed in triplicate.

[2] = biological target: T1, Human membrane‐bound CD73 (membrane preparation of MDA‐MB‐231 cell line) (Homo sapiens, UniProt P21589); assay: CD73 enzyme inhibition assay, human membrane-bound CD73; format: biochemical; conditions: membrane preparation of human TNBC MDA‐MB‐231 cell line, Km 14.8 µM, substrate AMP (5 µM)
T1 construct: endogenous in cells; host or cells: MDA-MB-231 (human triple-negative breast cancer) membrane preparation
T1 sequence (P21589 27-574): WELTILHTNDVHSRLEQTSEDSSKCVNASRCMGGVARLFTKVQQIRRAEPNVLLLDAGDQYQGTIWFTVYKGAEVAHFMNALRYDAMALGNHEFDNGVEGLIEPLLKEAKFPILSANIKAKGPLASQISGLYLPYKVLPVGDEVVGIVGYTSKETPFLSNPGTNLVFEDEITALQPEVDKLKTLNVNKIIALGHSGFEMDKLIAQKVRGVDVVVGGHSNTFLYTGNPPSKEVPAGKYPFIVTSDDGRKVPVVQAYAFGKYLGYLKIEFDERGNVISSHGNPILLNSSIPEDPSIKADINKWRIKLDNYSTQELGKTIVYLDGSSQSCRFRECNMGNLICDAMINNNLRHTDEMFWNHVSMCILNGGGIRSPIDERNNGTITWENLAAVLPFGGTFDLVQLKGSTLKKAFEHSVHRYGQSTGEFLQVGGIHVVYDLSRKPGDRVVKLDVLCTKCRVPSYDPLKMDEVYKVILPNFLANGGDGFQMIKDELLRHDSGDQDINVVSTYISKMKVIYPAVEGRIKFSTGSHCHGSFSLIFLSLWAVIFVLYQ
Method: (§1) The CD73 enzyme inhibition assay of recombinant soluble CD73, membrane-bound human CD73, soluble rat CD73 and mouse CD73 was performed as previously described.^[16,35^]

[3] = biological target: T2, Soluble recombinant rat CD73 (Rattus norvegicus, UniProt P21588); assay: CD73 enzyme inhibition assay, soluble rat CD73; format: biochemical; conditions: soluble recombinant rat CD73, Km 59 µM, substrate AMP (5 µM)
T2 sequence (P21588 29-551 limits assumed): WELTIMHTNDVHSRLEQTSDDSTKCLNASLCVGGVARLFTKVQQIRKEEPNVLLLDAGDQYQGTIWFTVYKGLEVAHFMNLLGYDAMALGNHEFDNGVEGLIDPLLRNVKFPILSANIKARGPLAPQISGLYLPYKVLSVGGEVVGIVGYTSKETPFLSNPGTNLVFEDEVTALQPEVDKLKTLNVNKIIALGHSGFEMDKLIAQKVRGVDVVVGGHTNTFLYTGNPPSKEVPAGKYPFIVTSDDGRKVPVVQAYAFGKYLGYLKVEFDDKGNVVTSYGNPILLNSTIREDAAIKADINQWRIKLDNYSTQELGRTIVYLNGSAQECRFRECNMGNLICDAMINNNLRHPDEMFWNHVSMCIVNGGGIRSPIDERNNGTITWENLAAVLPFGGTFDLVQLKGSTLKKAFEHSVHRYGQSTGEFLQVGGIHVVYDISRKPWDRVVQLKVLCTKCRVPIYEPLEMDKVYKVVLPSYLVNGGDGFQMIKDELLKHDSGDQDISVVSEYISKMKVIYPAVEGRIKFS
Method: (§2) Both compounds were evaluated for metabolic stability in mouse liver microsomes (MLM) and plasma protein binding (PPB) (Table 1).
as §1

[4] = biological target: Human serum albumin (HSA) (Homo sapiens, UniProt P02768); assay: Plasma protein binding (human serum albumin binding); format: in vitro ADME; conditions: human serum albumin, read-out: Plasma protein binding (PPB) (converted)
Human serum albumin (HSA), sequence (P02768 25-609): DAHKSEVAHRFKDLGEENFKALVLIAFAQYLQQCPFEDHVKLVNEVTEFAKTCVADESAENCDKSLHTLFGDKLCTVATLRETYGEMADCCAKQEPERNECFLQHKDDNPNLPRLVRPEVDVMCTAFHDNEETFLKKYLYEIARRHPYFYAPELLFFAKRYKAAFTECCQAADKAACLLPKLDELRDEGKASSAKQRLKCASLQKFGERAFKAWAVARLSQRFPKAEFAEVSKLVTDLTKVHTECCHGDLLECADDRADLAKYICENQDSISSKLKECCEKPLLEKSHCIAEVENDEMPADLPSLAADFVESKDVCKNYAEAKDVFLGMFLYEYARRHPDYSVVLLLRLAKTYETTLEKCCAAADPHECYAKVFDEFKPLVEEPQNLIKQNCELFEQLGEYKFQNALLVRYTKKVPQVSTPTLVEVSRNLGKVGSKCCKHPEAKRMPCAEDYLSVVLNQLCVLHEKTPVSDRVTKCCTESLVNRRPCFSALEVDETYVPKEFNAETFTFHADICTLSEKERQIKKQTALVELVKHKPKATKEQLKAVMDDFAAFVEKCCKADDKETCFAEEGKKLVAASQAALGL
Method: Human serum albumin (HSA) binding.
Plasma protein binding was determined following previously published procedure.^[38^]

[5] = biological target: T3, Mouse membrane‐bound CD73 (membrane preparation of 4T1.2 breast cancer cell line) (Mus musculus, UniProt Q61503); assay: CD73 enzyme inhibition assay, mouse membrane-bound CD73; format: biochemical; conditions: membrane preparation of mouse 4T1.2 breast cancer cell line, Km 67.6 µM, substrate AMP (5 µM)
T3 construct: endogenous in cells; host or cells: 4T1.2 mouse breast cancer cell line, membrane preparation (as named in the result head)
T3 sequence (Q61503 29-576): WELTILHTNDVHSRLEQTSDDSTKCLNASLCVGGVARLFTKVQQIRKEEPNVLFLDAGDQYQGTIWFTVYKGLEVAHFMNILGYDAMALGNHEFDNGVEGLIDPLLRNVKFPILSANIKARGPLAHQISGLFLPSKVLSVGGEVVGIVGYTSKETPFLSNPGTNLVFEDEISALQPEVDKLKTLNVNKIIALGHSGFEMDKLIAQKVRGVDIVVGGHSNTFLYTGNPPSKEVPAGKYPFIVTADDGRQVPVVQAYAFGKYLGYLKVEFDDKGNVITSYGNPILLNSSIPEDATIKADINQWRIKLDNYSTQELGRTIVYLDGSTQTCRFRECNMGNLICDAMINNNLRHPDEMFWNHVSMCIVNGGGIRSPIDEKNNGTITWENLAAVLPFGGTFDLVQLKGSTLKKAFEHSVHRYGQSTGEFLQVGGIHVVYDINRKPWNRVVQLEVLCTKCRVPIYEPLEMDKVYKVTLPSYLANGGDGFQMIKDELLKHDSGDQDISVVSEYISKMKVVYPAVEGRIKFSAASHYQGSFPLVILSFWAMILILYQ
Method: as §2, §1

Compound: CCCN(Cc1ccc(-c2cn(CCF)nn2)cc1)c1nc(Cl)nc2c1ncn2[C@@H]1O[C@H](COP(=O)(O)CP(=O)(O)O)[C@@H](O)[C@H]1O [compound 1]
- Metabolic stability in mouse liver microsomes (MLM): % decomposition [1]: 17 ± 2% and 17%
- Ki [2]: 2.78 nM
- Ki [3]: 6.09 nM
- fraction unbound [4]: < 0.01
- Ki [5]: 47.8 nM
